Patent US20250255990A1, “FLUORESCENT NANODIAMOND COATED WITH POROUS POLYDOPAMINE, AND USE THEREOF” (KOREA RESEARCH INSTITUTE OF STANDARDS AND SCIENCE, priority 2022, published 2025)

System: HeLa cells
Assay: Annexin V-FITC / PI flow cytometry (FACS)
Format: cell-based
Conditions: 50 μg/mL, 16 hours
Protocol: In addition, analysis was performed using FACS (BD Accuri™, BD Biosciences) to evaluate the biocompatibility of FND@mPDA-PEG. Specifically, HeLa cells were incubated with 50 μg/mL of FND, FND@mPDA-PEG, or doxorubicin for the control experiment at 37° C. for 16 hours and washed with PBS. Cells (1×10^5 cells/sample) were suspended in 100 μL of 1× binding buffer and stained with 5 μL of Annexin V-FITC and 5 μL of PI. The cells were gently vortexed and incubated at room temperature for 15 minutes in the dark. 400 μL of 1× binding buffer was added to each tube and then analyzed by flow cytometry. 10,000 or more events were collected and the data were analyzed using FlowJo™ version 10.7 software.

COc1cccc2c1C(=O)c1c(O)c3c(c(O)c1C2=O)C[C@@](O)(C(=O)CO)C[C@@H]3O[C@H]1C[C@H](N)[C@H](O)[C@H](C)O1 [doxorubicin]
apoptosis / cell survival: induced apoptosis of HeLa cells
